# In ChEMBL document CHEMBL2203120, “Contribution to investigation of antimicrobial activity of styrylquinolines” (Bioorg Med Chem, 2012):
# What was measured:
# Trichosporon beigelii [1] = experiment: Antimicrobial activity against Trichosporon beigelii 1188 after 48 hrs by broth microdilution test; format: functional; conditions: Trichosporon beigelii, 1188, 48 h
# [2] = system: Trichophyton mentagrophytes; experiment: Antimicrobial activity against Trichophyton mentagrophytes 445 after 72 hrs by broth microdilution test; format: functional; conditions: Trichophyton mentagrophytes, 445, 72 h
# Staphylococcus aureus [3] = experiment: Antimicrobial activity against Staphylococcus aureus CCM 4516/08 after 48 hrs by broth microdilution method; format: functional; conditions: CCM 4516/08, 48 h
# [4] = system: Staphylococcus epidermidis; experiment: Antimicrobial activity against Staphylococcus epidermidis H 6966/08 after 24 hrs by broth microdilution method; format: functional; conditions: H 6966/08, 24 h
# Nakaseomyces glabratus [5] = experiment: Antimicrobial activity against Candida glabrata 20/I after 48 hrs by broth microdilution test; format: functional
# Candida tropicalis [6] = experiment: Antimicrobial activity against Candida tropicalis 156 after 24 hrs by broth microdilution test; format: functional; conditions: Candida tropicalis, 156, 24 h
# [7] = Lipophilicity, log P of compound by RP-HPLC analysis; format: physicochemical
# Staphylococcus aureus [8] = experiment: Antimicrobial activity against methicillin-resistant Staphylococcus aureus H 5996/08 after 24 hrs by broth microdilution method; format: functional; conditions: H 5996/08, 24 h
# Lichtheimia corymbifera [9] = experiment: Antimicrobial activity against Absidia corymbifera 272 after 48 hrs by broth microdilution test; format: functional; conditions: Lichtheimia corymbifera, 272, 48 h
# Lichtheimia corymbifera [10] = experiment: Antimicrobial activity against Absidia corymbifera 272 after 24 hrs by broth microdilution test; format: functional; conditions: Lichtheimia corymbifera, 272, 24 h
# Candida tropicalis [11] = experiment: Antimicrobial activity against Candida tropicalis 156 after 48 hrs by broth microdilution test; format: functional; conditions: Candida tropicalis, 156, 48 h
# [12] = system: Trichophyton mentagrophytes; experiment: Antimicrobial activity against Trichophyton mentagrophytes 445 after 120 hrs by broth microdilution test; format: functional; conditions: Trichophyton mentagrophytes, 445, 120 h
# Candida albicans [13] = experiment: Antimicrobial activity against Candida albicans ATCC 44859 after 24 hrs by broth microdilution test; format: functional; conditions: ATCC 44859, 24 h
# Pichia kudriavzevii [14] = experiment: Antimicrobial activity against Candida krusei ATCC 6258 after 24 hrs by broth microdilution test; format: functional; conditions: ATCC 6258, 24 h
# Aspergillus fumigatus [15] = experiment: Antimicrobial activity against Aspergillus fumigatus 231 after 48 hrs by broth microdilution test; format: functional; conditions: Aspergillus fumigatus, 231, 48 h
# [16] = system: Staphylococcus epidermidis; experiment: Antimicrobial activity against Staphylococcus epidermidis H 6966/08 after 48 hrs by broth microdilution method; format: functional; conditions: H 6966/08, 48 h
# Candida albicans [17] = experiment: Antimicrobial activity against Candida albicans ATCC 44859 after 48 hrs by broth microdilution test; format: functional; conditions: ATCC 44859, 48 h
# Nakaseomyces glabratus [18] = experiment: Antimicrobial activity against Candida glabrata 20/I after 24 hrs by broth microdilution test; format: functional
# Trichosporon beigelii [19] = experiment: Antimicrobial activity against Trichosporon beigelii 1188 after 24 hrs by broth microdilution test; format: functional; conditions: Trichosporon beigelii, 1188, 24 h
# Staphylococcus aureus [20] = experiment: Antimicrobial activity against methicillin-resistant Staphylococcus aureus H 5996/08 after 48 hrs by broth microdilution method; format: functional; conditions: H 5996/08, 48 h
# Aspergillus fumigatus [21] = experiment: Antimicrobial activity against Aspergillus fumigatus 231 after 24 hrs by broth microdilution test; format: functional; conditions: Aspergillus fumigatus, 231, 24 h
# Pichia kudriavzevii [22] = experiment: Antimicrobial activity against Candida krusei ATCC 6258 after 48 hrs by broth microdilution test; format: functional; conditions: ATCC 6258, 48 h
# Staphylococcus aureus [23] = experiment: Antimicrobial activity against Staphylococcus aureus CCM 4516/08 after 24 hrs by broth microdilution method; format: functional; conditions: CCM 4516/08, 24 h
SMILES,MIC80 (Trichosporon beigelii [1]),MIC50 [2],MIC90 (Staphylococcus aureus [3]),MIC90 [4],MIC80 (Nakaseomyces glabratus [5]),MIC80 (Candida tropicalis [6]),logP [7],MIC90 (Staphylococcus aureus [8]),MIC50 (Lichtheimia corymbifera [9]),MIC50 (Lichtheimia corymbifera [10]),MIC80 (Candida tropicalis [11]),MIC50 [12],MIC80 (Candida albicans [13]),MIC80 (Pichia kudriavzevii [14]),MIC50 (Aspergillus fumigatus [15]),MIC90 [16],MIC80 (Candida albicans [17]),MIC80 (Nakaseomyces glabratus [18]),MIC80 (Trichosporon beigelii [19]),MIC90 (Staphylococcus aureus [20]),also measured
Oc1ccccc1/C=C/c1ccc2cccc(O)c2n1,62.5 µM,31.2 µM,62.5 µM,62.5 µM,31.2 µM,125 µM,3.95,62.5 µM,> 500 µM,62.5 µM,500 µM,62.5 µM,31.2 µM,31.2 µM,> 500 µM,125 µM,62.5 µM,31.2 µM,31.2 µM,125 µM,MIC50 (Aspergillus fumigatus [21]): 500 µM; MIC80 (Pichia kudriavzevii [22]): 62.5 µM; MIC90 (Staphylococcus aureus [23]): 62.5 µM
Oc1cccc(/C=C/c2ccc3cccc(O)c3n2)c1,> 125 µM,> 125 µM,125 µM,250 µM,> 125 µM,> 125 µM,3.95,125 µM,> 125 µM,> 125 µM,> 125 µM,> 125 µM,> 125 µM,> 125 µM,> 125 µM,500 µM,> 125 µM,> 125 µM,> 125 µM,125 µM,MIC50 (Aspergillus fumigatus [21]): > 125 µM; MIC80 (Pichia kudriavzevii [22]): > 125 µM; MIC90 (Staphylococcus aureus [23]): 125 µM
